The NIST ThermoML archive (doi:10.1016/j.tca.2009.10.001)

Assay: xn = mol fraction of the nth substance listed
Conditions: 101 kPa, Liquid; for viscosity: Capillary tube (Ostwald / Ubbelohde) method; for speed of sound: Linear variable-path acoustic interferometer; for mass density: Pycnometric method

CCCC#N [butanenitrile] + Cc1ccccc1
Conditions	mass density, 298.15 K [kg/m3]	mass density, 303.15 K [kg/m3]	mass density, 308.15 K [kg/m3]	speed of sound, 298.15 K [m/s]	speed of sound, 303.15 K [m/s]	speed of sound, 308.15 K [m/s]	viscosity, 298.15 K [mPa·s]	viscosity, 303.15 K [mPa·s]	viscosity, 308.15 K [mPa·s]
x2 = 0	784.7	780.3	775.9	1271.4	1252.2	1233.9	0.5463	0.5255	0.5049
x2 = 0.082	792.7	788.1	783.6	1276.3	1256.5	1237.9	0.5484	0.5265	0.5053
x2 = 0.1673	800.8	796.1	791.5	1280.6	1260.4	1241.7	0.5504	0.5276	0.5058
x2 = 0.2537	808.6	803.8	799.2	1284.9	1264.5	1245.4	0.5522	0.5287	0.5064
x2 = 0.3488	816.8	812	807.4	1289.2	1268.6	1249.3	0.5541	0.5299	0.5069
x2 = 0.4436	824.5	819.7	815.1	1292.6	1272.2	1252.5	0.5559	0.5309	0.5074
x2 = 0.5435	832.2	827.3	822.8	1294.9	1274.6	1254.7	0.5576	0.5317	0.5079
x2 = 0.651	839.8	834.9	830.4	1296.7	1276.5	1256.5	0.5592	0.5324	0.5082
x2 = 0.759	846.9	841.9	837.4	1298	1277.4	1257.8	0.5607	0.5329	0.5084
x2 = 0.8771	854.1	849.1	844.6	1298.7	1278.3	1259	0.5622	0.5337	0.5088
